As a reminder, the Ki is a dissociation constant, usually derived from enzyme kinetics or from competition with a known ligand. One may read the IC50 as the concentration that inhibits the measured activity by half.

For three molecules, Ki and IC50 results are on record in patent US9227972B2, “Aliphatic spirolactam CGRP receptor antagonists” (Merck Sharp & Dohme Corp., priority 2012, dated 2016).

The target of experiment [1] is T1, recombinant human CL receptor/RAMP1 (Homo sapiens, UniProt O60894+Q16602).
T1 construct: expressed in transfected cells
T1 sequence (Q16602 23-461): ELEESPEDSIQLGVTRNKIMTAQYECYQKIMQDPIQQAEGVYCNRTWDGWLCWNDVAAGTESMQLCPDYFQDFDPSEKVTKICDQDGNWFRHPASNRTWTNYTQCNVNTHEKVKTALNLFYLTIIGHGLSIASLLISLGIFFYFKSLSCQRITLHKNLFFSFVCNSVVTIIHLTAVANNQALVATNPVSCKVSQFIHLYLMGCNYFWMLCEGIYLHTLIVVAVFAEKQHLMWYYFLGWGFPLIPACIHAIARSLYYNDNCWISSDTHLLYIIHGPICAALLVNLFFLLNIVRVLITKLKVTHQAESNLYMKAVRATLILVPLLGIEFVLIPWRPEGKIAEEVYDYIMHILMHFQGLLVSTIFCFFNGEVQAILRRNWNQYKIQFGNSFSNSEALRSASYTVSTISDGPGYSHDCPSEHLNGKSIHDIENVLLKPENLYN
T1 sequence (O60894 27-148): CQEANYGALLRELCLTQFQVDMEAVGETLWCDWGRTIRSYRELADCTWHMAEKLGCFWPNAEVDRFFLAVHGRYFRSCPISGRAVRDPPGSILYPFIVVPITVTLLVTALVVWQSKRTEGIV
Description: Recombinant receptor binding assay (125I-hCGRP). The settings on record: membranes of HEK 293 cells expressing human CL receptor/RAMP1, 10 pM 125I-hCGRP, 3 h room temperature. As for the experimental part: (§1) RECOMBINANT RECEPTOR: Human CL receptor (Genbank accession number L76380) was subcloned into the expression vector pIREShyg2 (BD Biosciences Clontech) as a 5′NheI and 3′ PmeI fragment. Human RAMP1 (Genbank accession number AJ001014) was subcloned into the expression vector pIRESpuro2 (BD Biosciences Clontech) as a 5′NheI and 3′NotI fragment. HEK 293 cells (human embryonic kidney cells; ATCC #CRL-1573) were cultured in DMEM with 4.5 g/L glucose, 1 mM sodium pyruvate and 2 mM glutamine supplemented with 10% fetal bovine serum (FBS), 100 units/mL penicillin and 100 μg/mL streptomycin, and maintained at 37° C. and 95% humidity. Cells were subcultured by treatment with 0.25% trypsin with 0.1% EDTA in HBSS. Stable cell line generation was accomplished by co-transfecting 10 μg of DNA with 30 μg Lipofectamine 2000 (Invitrogen) in 75 cm^2 flasks. CL receptor and RAMP1 expression constructs were co-transfected in equal amounts. […]
[formula] Where Y is observed CPM bound, Ymax is total bound counts, Ymin is non specific bound counts, (Ymax−Ymin) is specific bound counts, % Imax is the maximum percent inhibition, % I min is the minimum percent inhibition, radiolabel is the probe, and the Kd is the apparent dissociation constant for the radioligand for the receptor as determined by hot saturation experiments.

In experiment [2] the target is T1, recombinant human CL receptor/RAMP1. The experiment is described as follows: Recombinant receptor functional assay (cAMP, HTRF). Format: cell-based. The settings on record: HEK 293 cells, 1.2 nM human α-CGRP, cAMP determination. As for the experimental part:
as §1
RECOMBINANT RECEPTOR FUNCTIONAL ASSAY: Cells were resuspended in DMEM/F12 (Hyclone) supplemented with 1 g/L BSA and 300 μM isobutyl-methylxanthine. […] Raw data were transformed into concentration of cAMP using a standard curve then dose response curves were plotted and inflection point (IP) values were determined.

Consider `C[C@@H]1[C@H](c2ccccc2)C[C@H](NCC(F)(F)c2cnc3c(c2)C[C@@]2(C3)C(=O)Nc3ncccc32)C(=O)N1CC(F)(F)F` [Example 2, (6S)-3-(1,1-Difluoro-2-(((3S,5S,6R)-6-methyl-2-oxo-5-phenyl-1-(2,2,2-trifluoroethyl)piperidin-3-yl)amino)ethyl)-5,7-dihydrospiro[cyclopenta[b]pyridine-6,3′-pyrrolo[2,3-b]pyridin]-2′(1′H)-one], for which, in experiment [1], the inhibition constant Ki was determined as 409 nM. In the case of `CC1C(c2cc(F)cc(F)c2F)CC(CC=Cc2cnc3c(c2)C[C@@]2(C3)C(=O)Nc3ncccc32)C(=O)N1CC(F)(F)F` (stereo partly drawn) [Example 1, (3′S)-3-(3-(6-Methyl-2-oxo-1-(2,2,2-trifluoroethyl)-5-(2,3,5-trifluorophenyl)piperidin-3-yl)prop-1-en-1-yl)-5,7-dihydrospiro[cyclopenta[b]pyridine-6,3′-pyrrolo[2,3-b]pyridin]-2′(1′H)-one], the 50% inhibitory concentration (IC50) in experiment [2] is 7.2 nM. For the molecule `C[C@@H]1[C@H](c2ccccc2)C[C@H](NS(=O)(=O)c2cnc3c(c2)C[C@@]2(C3)C(=O)Nc3ncccc32)C(=O)N1CC(F)(F)F` [Example 3, (6S)—N-[(3S,5S,6R)-6-Methyl-2-oxo-5-phenyl-1-(2,2,2-trifluoroethyl)piperidin-3-yl]-2′-oxo-1′,2′,5,7-tetrahydrospiro[cyclopenta[b]pyridine-6,3′-pyrrolo[2,3-b]pyridine]-3-sulfonamide], the IC50 in experiment [2] turned out to be 3720 nM.
